In ChEMBL document CHEMBL3044680, “Synthesis, characterization, and antimicrobial studies of novel 1,3,4-thiadiazolium-5-thiolates” (2012):
Converted amounts (≈) assume the structure as drawn.

Columns and labels:
Format in all cases: functional
[1] = system: Staphylococcus aureus; assay: Antimicrobial activity against Staphylococcus aureus at 200 ug/ml after 48 hr by cup-plate method; conditions: read-out: IZ
[2] = system: Bacillus subtilis; assay: Antimicrobial activity against Bacillus subtilis after overnight incubation by broth dilution method
[3] = system: Pseudomonas aeruginosa; assay: Antimicrobial activity against Pseudomonas aeruginosa after overnight incubation by broth dilution method
[4] = system: Escherichia coli; assay: Antimicrobial activity against Escherichia coli after overnight incubation by broth dilution method
[5] = system: Escherichia coli; assay: Antimicrobial activity against Escherichia coli at 200 ug/ml after 48 hr by cup-plate method; conditions: read-out: IZ
[6] = system: Pseudomonas aeruginosa; assay: Antimicrobial activity against Pseudomonas aeruginosa at 200 ug/ml after 48 hr by cup-plate method; conditions: read-out: IZ
[7] = system: Bacillus subtilis; assay: Antimicrobial activity against Bacillus subtilis at 200 ug/ml after 48 hr by cup-plate method; conditions: read-out: IZ
[8] = system: Staphylococcus aureus; assay: Antimicrobial activity against Staphylococcus aureus after overnight incubation by broth dilution method

In the case of `Cc1sc([S-])n[n+]1C(=O)c1ccc(-n2c(-c3ccccc3)nc3ccccc3c2=O)cc1`, the zone of inhibition at 200 µg/mL [1] is reported as 28 mm, the MIC [2] is reported as 8 µg/mL (≈ 17.5 µM) and the MIC [3] is reported as 16 µg/mL (≈ 35 µM). The MIC [4] was 32 µg/mL (≈ 70.1 µM), the zone of inhibition at 200 µg/mL [5] was 17 mm and the zone of inhibition at 200 µg/mL [6] was 18 mm. The zone of inhibition at 200 µg/mL [7] was 22 mm and the MIC [8] was 1 µg/mL (≈ 2.19 µM).
`O=C(c1ccc(-n2c(-c3ccccc3)nc3ccccc3c2=O)cc1)[n+]1nc([S-])sc1-c1ccccc1` showed a zone of inhibition at 200 µg/mL [1] of 24 mm, an MIC [2] of 2 µg/mL (≈ 3.86 µM) and an MIC [3] of 8 µg/mL (≈ 15.4 µM). The MIC [4] was 2 µg/mL (≈ 3.86 µM), the zone of inhibition at 200 µg/mL [5] was 28 mm and the zone of inhibition at 200 µg/mL [6] was 22 mm. It also gave a zone of inhibition at 200 µg/mL [7] of 25 mm and an MIC [8] of 4 µg/mL (≈ 7.71 µM).
`O=C(c1ccc(-n2c(-c3ccccc3)nc3ccccc3c2=O)cc1)[n+]1nc([S-])sc1-c1cc([N+](=O)[O-])ccc1Cl` gave a zone of inhibition at 200 µg/mL [1] of 26 mm, an MIC [2] of 16 µg/mL (≈ 26.8 µM) and an MIC [3] of 8 µg/mL (≈ 13.4 µM). For the same compound, the MIC [4] was 16 µg/mL (≈ 26.8 µM), the zone of inhibition at 200 µg/mL [5] was 19 mm and the zone of inhibition at 200 µg/mL [6] was 22 mm. The zone of inhibition at 200 µg/mL [7] was 18 mm and the MIC [8] was 2 µg/mL (≈ 3.34 µM).
For `O=C(c1ccc(-n2c(-c3ccccc3)nc3ccccc3c2=O)cc1)[n+]1nc([S-])sc1-c1ccc(Cl)c([N+](=O)[O-])c1`, the zone of inhibition at 200 µg/mL [1] was 20 mm, the MIC [2] was 64 µg/mL (≈ 107 µM) and the MIC [3] was 4 µg/mL (≈ 6.69 µM). For the same compound, the MIC [4] was 8 µg/mL (≈ 13.4 µM), the zone of inhibition at 200 µg/mL [5] was 22 mm and the zone of inhibition at 200 µg/mL [6] was 24 mm. It also gave a zone of inhibition at 200 µg/mL [7] of 14 mm and an MIC [8] of 8 µg/mL (≈ 13.4 µM).
For `COc1ccc(-c2sc([S-])n[n+]2C(=O)c2ccc(-n3c(-c4ccccc4)nc4ccccc4c3=O)cc2)cc1[N+](=O)[O-]`, the zone of inhibition at 200 µg/mL [1] was 19 mm, the MIC [2] was 32 µg/mL (≈ 53.9 µM) and the MIC [3] was 2 µg/mL (≈ 3.37 µM). The MIC [4] was 32 µg/mL (≈ 53.9 µM), the zone of inhibition at 200 µg/mL [5] was 15 mm and the zone of inhibition at 200 µg/mL [6] was 27 mm. For the same compound, the zone of inhibition at 200 µg/mL [7] was 16 mm and the MIC [8] was 16 µg/mL (≈ 27 µM).
`O=C(c1ccc(-n2c(-c3ccccc3)nc3ccccc3c2=O)cc1)[n+]1nc([S-])sc1-c1ccc(Cl)cc1` showed a zone of inhibition at 200 µg/mL [1] of 22 mm, an MIC [2] of 8 µg/mL (≈ 14.5 µM) and an MIC [3] of 8 µg/mL (≈ 14.5 µM). It also gave an MIC [4] of 16 µg/mL (≈ 28.9 µM), a zone of inhibition at 200 µg/mL [5] of 16 mm and a zone of inhibition at 200 µg/mL [6] of 21 mm. The zone of inhibition at 200 µg/mL [7] was 20 mm and the MIC [8] was 8 µg/mL (≈ 14.5 µM).
Work on `O=C(c1ccc(-n2c(-c3ccccc3)nc3ccccc3c2=O)cc1)[n+]1nc([S-])sc1-c1ccc([N+](=O)[O-])cc1` yielded a zone of inhibition at 200 µg/mL [1] of 20 mm, an MIC [2] of 4 µg/mL (≈ 7.1 µM) and an MIC [3] of 8 µg/mL (≈ 14.2 µM). For the same compound, the MIC [4] was 4 µg/mL (≈ 7.1 µM), the zone of inhibition at 200 µg/mL [5] was 23 mm and the zone of inhibition at 200 µg/mL [6] was 22 mm. For the same compound, the zone of inhibition at 200 µg/mL [7] was 24 mm and the MIC [8] was 8 µg/mL (≈ 14.2 µM).
`O=C(c1ccc(-n2c(-c3ccccc3)nc3ccccc3c2=O)cc1)[n+]1nc([S-])sc1-c1cccc([N+](=O)[O-])c1` showed a zone of inhibition at 200 µg/mL [1] of 11 mm, an MIC [2] of 64 µg/mL (≈ 114 µM) and an MIC [4] of 64 µg/mL (≈ 114 µM). The zone of inhibition at 200 µg/mL [5] was 13 mm, the zone of inhibition at 200 µg/mL [6] was 10 mm and the zone of inhibition at 200 µg/mL [7] was 15 mm. For the same compound, the MIC [8] was 64 µg/mL (≈ 114 µM).
`Cc1sc([S-])n[n+]1C(=O)c1ccc(Nc2nc(-c3ccccc3)nc3ccccc23)cc1` was tested, and the zone of inhibition at 200 µg/mL [1] was 19 mm, the MIC [2] was 8 µg/mL (≈ 17.6 µM) and the MIC [3] was 4 µg/mL (≈ 8.78 µM). The MIC [4] was 8 µg/mL (≈ 17.6 µM), the zone of inhibition at 200 µg/mL [5] was 20 mm and the zone of inhibition at 200 µg/mL [6] was 23 mm. The zone of inhibition at 200 µg/mL [7] was 21 mm and the MIC [8] was 16 µg/mL (≈ 35.1 µM).
`O=C(c1ccc(Nc2nc(-c3ccccc3)nc3ccccc23)cc1)[n+]1nc([S-])sc1-c1ccccc1` showed a zone of inhibition at 200 µg/mL [1] of 19 mm, an MIC [2] of 16 µg/mL (≈ 30.9 µM) and an MIC [3] of 4 µg/mL (≈ 7.73 µM). For the same compound, the MIC [4] was 8 µg/mL (≈ 15.5 µM), the zone of inhibition at 200 µg/mL [5] was 20 mm and the zone of inhibition at 200 µg/mL [6] was 24 mm. The zone of inhibition at 200 µg/mL [7] was 18 mm and the MIC [8] was 16 µg/mL (≈ 30.9 µM).
Compound `O=C(c1ccc(Nc2nc(-c3ccccc3)nc3ccccc23)cc1)[n+]1nc([S-])sc1-c1cc([N+](=O)[O-])ccc1Cl` has a zone of inhibition at 200 µg/mL [1] of 23 mm, an MIC [2] of 8 µg/mL (≈ 13.4 µM) and an MIC [3] of 2 µg/mL (≈ 3.35 µM). For the same compound, the MIC [4] was 4 µg/mL (≈ 6.7 µM), the zone of inhibition at 200 µg/mL [5] was 24 mm and the zone of inhibition at 200 µg/mL [6] was 26 mm. It also gave a zone of inhibition at 200 µg/mL [7] of 22 mm and an MIC [8] of 4 µg/mL (≈ 6.7 µM).
`O=C(c1ccc(Nc2nc(-c3ccccc3)nc3ccccc23)cc1)[n+]1nc([S-])sc1-c1ccc(Cl)c([N+](=O)[O-])c1` was tested, and the zone of inhibition at 200 µg/mL [1] was 20 mm, the MIC [2] was 16 µg/mL (≈ 26.8 µM) and the MIC [3] was 8 µg/mL (≈ 13.4 µM). It also gave an MIC [4] of 32 µg/mL (≈ 53.6 µM), a zone of inhibition at 200 µg/mL [5] of 15 mm and a zone of inhibition at 200 µg/mL [6] of 22 mm. The zone of inhibition at 200 µg/mL [7] was 19 mm and the MIC [8] was 8 µg/mL (≈ 13.4 µM).
`COc1ccc(-c2sc([S-])n[n+]2C(=O)c2ccc(Nc3nc(-c4ccccc4)nc4ccccc34)cc2)cc1[N+](=O)[O-]` showed a zone of inhibition at 200 µg/mL [1] of 22 mm, an MIC [2] of 4 µg/mL (≈ 6.75 µM) and an MIC [3] of 8 µg/mL (≈ 13.5 µM). It also gave an MIC [4] of 4 µg/mL (≈ 6.75 µM), a zone of inhibition at 200 µg/mL [5] of 23 mm and a zone of inhibition at 200 µg/mL [6] of 22 mm. It also gave a zone of inhibition at 200 µg/mL [7] of 24 mm and an MIC [8] of 8 µg/mL (≈ 13.5 µM).
Compound `O=C(c1ccc(Nc2nc(-c3ccccc3)nc3ccccc23)cc1)[n+]1nc([S-])sc1-c1ccc(Cl)cc1` has a zone of inhibition at 200 µg/mL [1] of 19 mm, an MIC [2] of 8 µg/mL (≈ 14.5 µM) and an MIC [3] of 4 µg/mL (≈ 7.25 µM). The MIC [4] was 8 µg/mL (≈ 14.5 µM), the zone of inhibition at 200 µg/mL [5] was 22 mm and the zone of inhibition at 200 µg/mL [6] was 24 mm. For the same compound, the zone of inhibition at 200 µg/mL [7] was 21 mm and the MIC [8] was 16 µg/mL (≈ 29 µM).
Work on `O=C(c1ccc(Nc2nc(-c3ccccc3)nc3ccccc23)cc1)[n+]1nc([S-])sc1-c1ccc([N+](=O)[O-])cc1` yielded a zone of inhibition at 200 µg/mL [1] of 16 mm, an MIC [2] of 16 µg/mL (≈ 28.4 µM) and an MIC [3] of 32 µg/mL (≈ 56.9 µM). The MIC [4] was 16 µg/mL (≈ 28.4 µM), the zone of inhibition at 200 µg/mL [5] was 18 mm and the zone of inhibition at 200 µg/mL [6] was 15 mm. For the same compound, the zone of inhibition at 200 µg/mL [7] was 19 mm and the MIC [8] was 32 µg/mL (≈ 56.9 µM).
With `O=C(c1ccc(Nc2nc(-c3ccccc3)nc3ccccc23)cc1)[n+]1nc([S-])sc1-c1cccc([N+](=O)[O-])c1` the zone of inhibition at 200 µg/mL [1] was 21 mm, the MIC [2] was 32 µg/mL (≈ 56.9 µM) and the MIC [3] was 8 µg/mL (≈ 14.2 µM). For the same compound, the MIC [4] was 16 µg/mL (≈ 28.4 µM), the zone of inhibition at 200 µg/mL [5] was 20 mm and the zone of inhibition at 200 µg/mL [6] was 22 mm. The zone of inhibition at 200 µg/mL [7] was 16 mm and the MIC [8] was 8 µg/mL (≈ 14.2 µM).
In the case of `O=C(O)c1cn(C2CC2)c2cc(N3CCNCC3)c(F)cc2c1=O` [CIPROFLOXACIN], the zone of inhibition at 200 µg/mL [1] is reported as 31 mm, the MIC [2] is reported as 0.5 µg/mL (≈ 1.51 µM) and the zone of inhibition at 200 µg/mL [5] is reported as 38 mm. It also gave a zone of inhibition at 200 µg/mL [6] of 41 mm, a zone of inhibition at 200 µg/mL [7] of 35 mm and an MIC [8] of 1 µg/mL (≈ 3.02 µM).
